Source: ChEMBL document CHEMBL1140769, “Characterization of distamycin A binding to damaged DNA” (Bioorg Med Chem, 2008)

Key:
[1] = Binding affinity to T.A-20 DNA duplex by CD titration
[2] = Binding affinity to MG.C-20 DNA duplex by CD titration
[3] = Binding affinity to G.A-20 DNA duplex by CD titration
[4] = Binding affinity to AP.A-20 DNA duplex by CD titration
[5] = Binding affinity to OG.A-20 DNA duplex by CD titration

Kd [1]: 0.37 µM
Kd [2]: 7.6 µM
Kd [3]: 3.7 µM
Kd [4]: 2 µM
Kd [5]: 0.2 µM
Structure (SMILES): Cn1cc(NC(=O)c2cc(NC(=O)c3cc(NC=O)cn3C)cn2C)cc1C(=O)NCCC(=N)N [STALLIMYCIN]
